Measurements published in US20220259164A1, “USE OF AMINOTHIOL COMPOUNDS AS CEREBRAL NERVE OR HEART PROTECTIVE AGENT” (SHANGHAI KECHOW PHARMA, INC., priority 2019, published 2022).
Where a SMILES comes first, the peptide text is derived from it. [ ]: non-standard residue; d: D form. NMeC = CN[C@@H](CS)C(=O)O

How the values were obtained:
[1] = Body weight of cisplatin-induced SD rats; format: in vivo, rat; conditions: 30 min prior to cisplatin 5 mg/kg i.p.: compound B 200 mg/kg i.p., compound A 800 mg/kg p.o., amifostine 200 mg/kg i.p.; weighed daily
Experimental: Healthy male SPF grade SD rats (body weight 250-300 g) were selected. Cisplatin+compound B group: 5 mg/kg i.p.+compound B at 200 mg/kg i.p., with compound B being administered 30 min prior to cisplatin administration Cisplatin+amifostine group: 5 mg/kg i.p.+AMI at 200 mg/kg i.p., with AMI being administered 30 min prior to cisplatin administration Cisplatin+compound A group: 5 mg/kg i.p.+compound A at 800 mg/kg p.o., with compound A being administered 30 min prior to cisplatin administration (1) The SD rats used in the experiment were weighed, labeled, and evenly divided into 5 groups, with 3 SD rats in each group. (2) The compound B, compound A, and AMI groups were respectively administered at the planned concentrations. […] (3) The rats were weighed and recorded daily, and on day 5, blood was taken from the intraocular canthus of the SD rats and placed in an anticoagulant tube.

[2] = system: rat myocardial infarction model (coronary ligation 30 min, reperfusion); test: Myocardial infarction model: myocardial enzyme LDH in serum; format: in vivo; conditions: for Improvement rate (%) of LDH: compared with model group; for LDH: serum, x ± s, n = 10
Experimental: 1. The rats were grouped and administered according to the following methods (2) Compound B (i.v.) at 100 mg/kg (3) Compound A (i.v.) at 100 mg/kg (4) Compound A (oral) at 500 mg/kg (5) Isosorbide mononitrate injection (i.v.) at 1 mg/kg (equivalent to clinical equivalent dose). There were 10 rats in each group, and the rats were administered intravenously immediately after 30 min of ischemia and reperfusion, i.v. 10% 1 min+i.v. drip 90% 30 min. The administration volume was 2 ml/rat. Compound A (oral) at 500 mg/kg was administered intragastrically 2 h after reperfusion when the animal was awake, and the administration volume was 10 ml/kg. Note: Compounds A and B used in this example were in the form of hydrochloride salts thereof. Given intraperitoneal injection of 3% sodium pentobarbital at 60 mg/kg for general anesthesia, the rats were fixed on an operating table in the supine position. The surgical field of the anterolateral chest was depilated and routinely disinfected. The skin and muscular layer were cut open, purse-string suture was performed on the muscular layer, the chest was opened on the left at the fourth intercostal space, and the heart was pulled out with a ring-shaped retractor. At the position of the anterior descending coronary artery 3-4 mm below the left atrial appendage, a 6/0 damage-free silk thread was threaded, and a nylon thread with a diameter of 1.6 mm was juxtaposed and ligated together with the anterior descending coronary artery, while the other end was left outside the body for later use. The heart was placed back into the chest cavity, the air in the chest cavity was emptied, and the chest cavity was closed. 30 min after ligation, the nylon thread was carefully removed for reperfusion. Compared with the normal lead II electrocardiogram (ECG-II), ST segment elevation in ECG-II by 0.1 mV or more 30 min after coronary artery ligation was regarded as successful ischemia. […] Blood was collected from the rats through the abdominal aorta and centrifuged at 3000 rpm×10 min at 4° C., and the upper serum was taken to determine LDH by enzyme-linked immunosorbent assay.

[3] = system: bleomycin (BLM)-induced scleroderma mouse model; test: H2O2 level in skin lesion, BLM-induced scleroderma mouse model; format: in vivo, mice; conditions: compound A (hydrochloride) 600 mg/kg/d by gavage or compound B (trifluoroacetate) 200 mg/kg/d i.p., 28 days with BLM
From the text: Materials: C57BL/6 female mice, weighing 20-25 g, were purchased from Shanghai SLAC Laboratory Animal Co., Ltd. Using a random number table method, 24 mice were divided into a blank control group (1), a scleroderma model group (2), a scleroderma+compound A treatment group (3), and a scleroderma+compound B treatment group (4), with 6 mice in each group. Bleomycin (BLM) was purchased from Sigma. An H-E staining kit was purchased from Beijing Solarbio Science & Technology Co., Ltd. Compound A used in this example was in the form of a hydrochloride thereof, and compound B was in the form of a trifluoroacetate thereof.
Method: The intended injection site (area 1 cm^2) of the mice was shaved using an electric shaver. […] Conventional iodine tincture was used to disinfect the back skin of the mice, and a local diseased skin tissue was surgically cut, fixed in 4% paraformaldehyde, embedded in paraffin, sectioned, and analyzed by H-E staining. […]
Method: Part of the skin lesion tissue of the mice was taken, and the contents of hydroxyproline and hydrogen peroxide in the skin lesion region were detected according to the requirements in the kit instructions.

[4] = compound A (hydrochloride) i.v. 100 mg/kg
[5] = compound A (hydrochloride) oral 500 mg/kg
[6] = compound B (hydrochloride) i.v. 100 mg/kg

| SMILES | Change in body weight of cisplatin-induced SD rats [1] | Improvement rate (%) of LDH [2, 4] [%] | LDH [2, 4] [U/L] | Improvement rate (%) of LDH [2, 5] [%] | LDH [2, 5] [U/L] | Concentration of H2O2 in the skin [3] | Improvement rate (%) of LDH [2, 6] [%] | LDH [2, 6] [U/L] |
| --- | --- | --- | --- | --- | --- | --- | --- | --- |
| CNC(=O)[C@H](CS)NC(=O)[C@H](CS)NC [Compound A, (R)-3-mercapto-N—((R)-3-mercapto-1-(methylamino)-1-oxoprop-2-yl)-2-(methylamino)propionamide] (H-[NMeC]-Cys-NHMe) | the degree of decrease was significantly better than that of the cisplatin group | 19.9 | 1521.6 ± 353.6 | 25.8 | 1408 ± 308.7 | reduced | – | – |
| CNC(=O)[C@H](CS)NC(=O)[C@H](CS)NC(=O)[C@H](CS)NC [Compound B, (R)-3-mercapto-N—((R)-3-mercapto-1-(((R)-3-mercapto-1-(methylamino)-1-oxoprop-2-yl)amino)-1-oxoprop-2-yl)-2-(methylamino)propionamide] (H-[NMeC]-Cys-Cys-NHMe) | the body weight increased rather than decrease | – | – | – | – | reduced | 22.2 | 1476.7 ± 282.4 |
